Values after ≈ are worked out from the molar mass of the structure shown. Like-named read-outs stand apart in the source and are kept apart here.
Tests used:
[1] = cited from earlier work
[2] = Solubility comparison: saturated solution in water, absorbance at 210 nm; assay type: physicochemical; conditions: room temperature
Procedure: Solubility studies of different aprepitant powders were conducted. Sufficient aprepitant having either crystalline Form I or II, or in the form of an amorphous povidone coprecipitate, was added to a 25 ml test tube containing 10 ml of water at room temperature to get a saturated solution. The solutions were filtered and filtrate was used to obtain the absorbance at 210 nm. Absorbance was compared to standards prepared by dissolving aprepitant in methanol, then diluting aliquots with water.

Solubility in water [2] [µg/mL]	SMILES	Solubility in acetonitrile ([1]; acetonitrile)	Solubility in ethanol ([1]; ethanol)	Solubility in isopropyl acetate ([1]; isopropyl acetate)	Solubility in water ([1]; water)
–	C[C@@H](O[C@H]1OCCN(Cc2n[nH]c(=O)[nH]2)[C@H]1c1ccc(F)cc1)c1cc(C(F)(F)F)cc(C(F)(F)F)c1 [Aprepitant, 5-[[(2R,3S)-2-[(1R)-1-[3,5-bis(trifluoromethyl)phenyl]ethoxy]-3-(4-fluorophenyl)-4-morpholinyl]methyl]-1,2-dihydro-3H-1,2,4-triazol-3-one]	slightly soluble	sparingly soluble	sparingly soluble	practically insoluble
20 (≈ 37.4 µM)	C[C@@H](O[C@H]1OCCN(Cc2n[nH]c(=O)[nH]2)[C@H]1c1ccc(F)cc1)c1cc(C(F)(F)F)cc(C(F)(F)F)c1 [crystalline Form I, 5-[[(2R,3S)-2-[(1R)-1-[3,5-bis(trifluoromethyl)phenyl]ethoxy]-3-(4-fluorophenyl)-4-morpholinyl]methyl]-1,2-dihydro-3H-1,2,4-triazol-3-one]	–	–	–	–
140 (≈ 262 µM)	C[C@@H](O[C@H]1OCCN(Cc2n[nH]c(=O)[nH]2)[C@H]1c1ccc(F)cc1)c1cc(C(F)(F)F)cc(C(F)(F)F)c1 [crystalline Form II, 5-[[(2R,3S)-2-[(1R)-1-[3,5-bis(trifluoromethyl)phenyl]ethoxy]-3-(4-fluorophenyl)-4-morpholinyl]methyl]-1,2-dihydro-3H-1,2,4-triazol-3-one]	–	–	–	–
